Source: US12065443B2, “Compounds and pharmaceutical compositions thereof for the treatment of diseases” (priority 2017, dated 2024)

Assays:
Assay in all cases: biochemical
Conditions in all cases: ADP-Glo SIK kinase assay
[1] = target: T1, SIK1 (Homo sapiens, UniProt P57059)
T1 construct: purchased Carna Biosciences 02-131
Protocol: (§1) The ADP-Glo™ kinase assay is a luminescent technology assay which measures the ADP formed from a kinase reaction. […] In a second step the kinase reactions are terminated and all the remaining ATP is depleted. In a final step the ADP is converted into ATP and this newly synthesized ATP is measured by using a luciferase/luciferin reaction. The generated light is measured using an Envision plate reader, wherein the luminescent signal obtained positively correlates with the kinase activity.
(§2) 1% DMSO and 10 μM staurosporine final concentrations are used as negative and positive controls.
(§3) 2 μL enzyme-substrate mixture is added to the assay plates.
(§4) The reaction is started by adding 2 μL diluted ATP on the assay plates. Plates are centrifuged for a few seconds at 1000 rpm and gently shaken for 2 min followed by an incubation at RT for 120 min.
(§5) The reactions are stopped and the unconsumed ATP is depleted by adding 5 μL ADP-Glo Reagent (Promega, Cat #V912B) to the reaction. The plates are centrifuged for a few seconds at 1000 rpm and incubated at RT for 40 min (ATP depletion).
(§6) The ADP is converted to ATP and luciferase and luciferin is introduced to detect ATP by adding 10 μL Kinase Detection Reagent (Promega, Cat #V913B+V914B) to the reaction. The plates are centrifuged for a few seconds at 1000 rpm and incubated at RT for 30 min (ADP detection).
(§7) Luminescence is measured on an Envision plate reader (PerkinElmer Inc.).

[2] = target: T2, SIK2 (Homo sapiens, UniProt Q9H0K1)
T2 construct: purchased ThermoFisher Scientific PV4792
T2 sequence (Q9H0K1 whole entry): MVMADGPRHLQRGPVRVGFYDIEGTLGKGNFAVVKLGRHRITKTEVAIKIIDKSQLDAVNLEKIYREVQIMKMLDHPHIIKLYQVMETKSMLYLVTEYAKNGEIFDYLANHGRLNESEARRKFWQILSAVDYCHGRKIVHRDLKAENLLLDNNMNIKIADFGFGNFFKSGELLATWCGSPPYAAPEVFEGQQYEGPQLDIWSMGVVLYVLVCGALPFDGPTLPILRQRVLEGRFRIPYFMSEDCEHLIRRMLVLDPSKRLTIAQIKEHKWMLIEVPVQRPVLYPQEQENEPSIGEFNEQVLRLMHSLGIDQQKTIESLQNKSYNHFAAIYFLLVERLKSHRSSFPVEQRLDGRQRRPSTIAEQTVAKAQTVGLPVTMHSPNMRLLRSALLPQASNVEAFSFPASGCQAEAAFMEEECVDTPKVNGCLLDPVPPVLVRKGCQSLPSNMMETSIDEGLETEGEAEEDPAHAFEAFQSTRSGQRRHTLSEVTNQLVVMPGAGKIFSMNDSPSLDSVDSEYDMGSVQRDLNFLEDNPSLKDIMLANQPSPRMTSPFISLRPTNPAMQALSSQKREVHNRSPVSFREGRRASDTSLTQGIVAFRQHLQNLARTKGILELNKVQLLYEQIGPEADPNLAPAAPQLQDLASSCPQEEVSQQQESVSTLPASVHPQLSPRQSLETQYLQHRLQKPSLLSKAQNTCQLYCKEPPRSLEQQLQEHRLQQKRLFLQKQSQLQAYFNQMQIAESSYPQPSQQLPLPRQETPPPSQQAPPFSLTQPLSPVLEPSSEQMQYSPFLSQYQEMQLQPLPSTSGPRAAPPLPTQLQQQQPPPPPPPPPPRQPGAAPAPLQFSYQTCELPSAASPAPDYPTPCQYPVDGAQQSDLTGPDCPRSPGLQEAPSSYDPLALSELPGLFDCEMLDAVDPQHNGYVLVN
Protocol: as §1, §2, §3, §4, §5, §6, §7

[3] = target: T3, SIK3 (Homo sapiens, UniProt Q9Y2K2)
T3 construct: purchased SignalChem S12-11G-100
T3 sequence (Q9Y2K2 whole entry): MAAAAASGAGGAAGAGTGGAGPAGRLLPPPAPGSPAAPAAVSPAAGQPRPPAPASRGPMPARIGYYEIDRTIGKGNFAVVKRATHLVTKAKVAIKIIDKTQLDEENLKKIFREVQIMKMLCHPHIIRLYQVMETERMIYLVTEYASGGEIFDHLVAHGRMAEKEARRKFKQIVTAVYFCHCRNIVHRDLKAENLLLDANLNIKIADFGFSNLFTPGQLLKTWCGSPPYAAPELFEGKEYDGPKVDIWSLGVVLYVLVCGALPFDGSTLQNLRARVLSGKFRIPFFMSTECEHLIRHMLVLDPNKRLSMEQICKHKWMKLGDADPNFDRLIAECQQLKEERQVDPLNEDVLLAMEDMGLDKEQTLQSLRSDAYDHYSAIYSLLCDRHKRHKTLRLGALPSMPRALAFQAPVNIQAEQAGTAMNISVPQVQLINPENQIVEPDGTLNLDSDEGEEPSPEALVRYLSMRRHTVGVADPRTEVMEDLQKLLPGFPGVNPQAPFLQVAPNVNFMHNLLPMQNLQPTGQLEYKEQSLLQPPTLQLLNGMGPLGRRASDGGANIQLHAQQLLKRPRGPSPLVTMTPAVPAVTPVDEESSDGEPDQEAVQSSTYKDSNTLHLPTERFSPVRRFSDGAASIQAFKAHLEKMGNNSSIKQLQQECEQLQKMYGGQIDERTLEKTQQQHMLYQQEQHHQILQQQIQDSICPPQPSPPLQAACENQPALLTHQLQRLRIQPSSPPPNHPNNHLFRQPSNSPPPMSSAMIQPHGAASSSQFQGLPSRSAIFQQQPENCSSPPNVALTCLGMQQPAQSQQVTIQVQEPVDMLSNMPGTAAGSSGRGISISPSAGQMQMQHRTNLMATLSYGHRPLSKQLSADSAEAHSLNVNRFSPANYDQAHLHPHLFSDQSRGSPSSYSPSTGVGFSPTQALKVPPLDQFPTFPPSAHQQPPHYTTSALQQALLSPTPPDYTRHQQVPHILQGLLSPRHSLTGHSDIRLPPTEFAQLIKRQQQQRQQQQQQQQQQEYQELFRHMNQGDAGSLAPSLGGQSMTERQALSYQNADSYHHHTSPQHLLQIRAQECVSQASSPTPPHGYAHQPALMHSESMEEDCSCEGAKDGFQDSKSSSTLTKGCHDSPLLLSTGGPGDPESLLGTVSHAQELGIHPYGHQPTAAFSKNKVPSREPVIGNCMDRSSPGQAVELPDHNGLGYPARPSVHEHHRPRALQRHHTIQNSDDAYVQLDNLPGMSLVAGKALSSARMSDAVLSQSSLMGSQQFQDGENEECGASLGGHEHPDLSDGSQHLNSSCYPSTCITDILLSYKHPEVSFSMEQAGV
Protocol: as §1, §2, §3, §4, §5, §6, §7

T1 sequence (P57059 whole entry): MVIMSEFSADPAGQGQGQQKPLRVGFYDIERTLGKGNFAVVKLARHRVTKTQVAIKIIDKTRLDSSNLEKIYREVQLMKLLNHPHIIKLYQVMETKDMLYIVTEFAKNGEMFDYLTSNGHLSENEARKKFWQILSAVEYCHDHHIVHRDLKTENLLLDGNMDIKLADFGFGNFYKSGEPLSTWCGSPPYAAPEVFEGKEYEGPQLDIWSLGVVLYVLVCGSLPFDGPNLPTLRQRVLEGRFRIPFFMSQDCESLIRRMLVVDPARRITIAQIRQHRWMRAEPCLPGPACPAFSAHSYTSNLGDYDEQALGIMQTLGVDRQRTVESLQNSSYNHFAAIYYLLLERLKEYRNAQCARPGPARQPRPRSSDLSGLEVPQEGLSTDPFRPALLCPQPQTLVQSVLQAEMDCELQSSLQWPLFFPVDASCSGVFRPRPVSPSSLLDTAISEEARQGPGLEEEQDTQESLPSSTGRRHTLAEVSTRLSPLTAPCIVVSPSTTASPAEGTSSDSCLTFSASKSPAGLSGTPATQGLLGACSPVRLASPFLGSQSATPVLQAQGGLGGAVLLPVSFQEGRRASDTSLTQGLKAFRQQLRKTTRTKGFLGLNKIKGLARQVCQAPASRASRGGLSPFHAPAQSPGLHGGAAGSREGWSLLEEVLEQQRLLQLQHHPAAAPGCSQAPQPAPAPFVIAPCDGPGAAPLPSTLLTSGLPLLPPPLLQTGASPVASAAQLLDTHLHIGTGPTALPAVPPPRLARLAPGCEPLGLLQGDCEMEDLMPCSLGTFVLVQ

Row | SMILES | IC50 [1] [nM] | IC50 [2] [nM] | IC50 [3] [nM]
1 | CCOC(=O)Cn1cc(-c2ccn3c(-c4cc(OC)c(C(=O)NC5CC5)c(OC(F)F)c4)cnc3c2)cn1 [Cpd 284, ethyl 2-[4-[3-[4-(cyclopropyl-carbamoyl)-3-(difluoromethoxy)-5-methoxy-phenyl]imidazo[1,2-a]pyridin-7-yl]pyrazol-1-yl]acetate] | 0.01 to 10 | 0.01 to 10 | 0.01 to 10
2 | COc1cc(-c2cnc3cc(-c4cnn(C)c4)c(OC(C)C(=O)O)cn23)cc(OC(F)F)c1C(=O)NC1CC1 (stereo not drawn) [Cpd 303, 2-[3-[4-(cyclopropyl-carbamoyl)-3-(difluoromethoxy)-5-methoxy-phenyl]-7-(1-methylpyrazol-4-yl)imidazo[1,2-a]pyridin-6-yl]oxypropanoic acid] | 10 to 100 | 10 to 100 | 10 to 100
3 | COc1cc(-c2cnc3cc(-c4cnn(C(C)(C)C(=O)O)c4)ccn23)cc(OC)c1C(=O)NCC(F)(F)F [Cpd 304, 2-[4-[3-[3,5-dimethoxy-4-(2,2,2-trifluoroethyl-carbamoyl)phenyl]imidazo[1,2-a]pyridin-7-yl]pyrazol-1-yl]-2-methyl-propanoic acid] | 0.01 to 10 | 10 to 100 | 0.01 to 10
4 | COc1cc(-c2cnc3cc(-c4cccnc4C#N)ccn23)cc(OC)c1C(=O)NCC(F)(F)F [compound 268, 4-[7-(2-cyano-3-pyridyl)imidazo[1,2-a]pyridin-3-yl]-2,6-dimethoxy-N-(2,2,2-trifluoroethyl)benzamide] | > 500 | 100 to 500 | 10 to 100
5 | Cn1cc(-c2ccn3c(-c4cc(F)c(C(=O)NCC(F)(F)F)c(F)c4)cnc3c2)cn1 [compound 271, 2,6-difluoro-4-[7-(1-methylpyrazol-4-yl)imidazo[1,2-a]pyridin-3-yl]-N-(2,2,2-trifluoroethyl)benzamide] | 100 to 500 | 0.01 to 10 | 10 to 100
6 | COc1cc(-c2cnc3cc(-c4cnn(C)c4)ccn23)cc(NC(C)C)c1C(=O)NC1CC1 [compound 277, N-cyclopropyl-2-(isopropylamino)-6-methoxy-4-[7-(1-methylpyrazol-4-yl)imidazo[1,2-a]pyridin-3-yl]benzamide] | 0.01 to 10 | 0.01 to 10 | 0.01 to 10

Next, values leading:

Row | IC50 [1] [nM] | IC50 [2] [nM] | IC50 [3] [nM] | SMILES
7 | 10 to 100 | 0.01 to 10 | 10 to 100 | COc1cc(-c2cnc3cc(-c4cnn(C)c4)c(OCc4ccccc4)cn23)cc(OC(F)F)c1C(=O)NC1CC1 [Cpd 300, 4-[6-benzyloxy-7-(1-methylpyrazol-4-yl)imidazo[1,2-a]pyridin-3-yl]-N-cyclopropyl-2-(difluoromethoxy)-6-methoxy-benzamide]
8 | 0.01 to 10 | 0.01 to 10 | 0.01 to 10 | COc1cc(-c2cnc3cc(-c4cnn(C)c4)c(OC(C)C#N)cn23)cc(OC(F)F)c1C(=O)NC1CC1 (stereo not drawn) [Cpd 301, 4-[6-(1-cyanoethoxy)-7-(1-methylpyrazol-4-yl)imidazo[1,2-a]pyridin-3-yl]-N-cyclopropyl-2-(difluoromethoxy)-6-methoxy-benzamide]
9 | 10 to 100 | 10 to 100 | 10 to 100 | CCOC(=O)C(C)Oc1cn2c(-c3cc(OC)c(C(=O)NC4CC4)c(OC(F)F)c3)cnc2cc1-c1cnn(C)c1 (stereo not drawn) [Cpd 302, ethyl 2-[3-[4-(cyclopropyl-carbamoyl)-3-(difluoromethoxy)-5-methoxy-phenyl]-7-(1-methylpyrazol-4-yl)imidazo[1,2-a]pyridin-6-yl]oxypropanoate]
10 | 10 to 100 | 0.01 to 10 | 0.01 to 10 | COc1cc(-c2cnc3cc(-c4ccc(C)nn4)ccn23)cc(OC)c1C(=O)NCC(F)(F)F [compound 269, 2,6-dimethoxy-4-[7-(6-methylpyridazin-3-yl)imidazo[1,2-a]pyridin-3-yl]-N-(2,2,2-trifluoroethyl)benzamide]
11 | 10 to 100 | 0.01 to 10 | 0.01 to 10 | COc1cc(-c2cnc3cc(-c4ccc(C(F)(F)F)nn4)ccn23)cc(OC(F)F)c1C(=O)NC1CC1 [compound 281, N-cyclopropyl-2-(difluoromethoxy)-6-methoxy-4-[7-[6-(trifluoromethyl)pyridazin-3-yl]imidazo[1,2-a]pyridin-3-yl]benzamide]
